Measurements reported in patent publication US7375083B2, “Pharmaceutical compositions for prevention of overdose or abuse” (Shire LLC, priority 2003, dated 2008).

What was measured:
Male Sprague-Dawley rats [1] = assay: Horizontal locomotor activity after oral administration; format: in vivo; settings: oral gavage, 6 mg/kg amphetamine equivalent
Anesthetized Dog = assay: Cardiovascular effects after intravenous bolus injection in anesthetized dogs
Male Sprague-Dawley rats [2] = assay: Locomotor activity after intravenous administration; format: in vivo
Male Sprague-Dawley rats [3] = assay: Locomotor activity after intranasal administration with and without CMC; format: in vivo
[4] = Oral pharmacokinetics in rats, plasma d-amphetamine by ELISA; settings: rat; oral; 60 mg/kg
[5] = 1.0 mg/kg amphetamine equivalent, 3 h
[6] = 1.0 mg/kg, activity above baseline relative to d-amphetamine
[7] = 1.0 mg/kg amphetamine equivalent, 1 h

## C[C@H](N)Cc1ccccc1 [d-amphetamine, reference compound]
Male Sprague-Dawley rats [1]; 5 Hours
  Peak of activity (Counts per 0.2 h): 291 Counts per 0.2 h
  Time of Last Count Above 200 per 0.2 h: 2.6 h
  Total Activity Counts: 515 Counts
  Total Activity Counts Above Baseline: 0 Counts
Male Sprague-Dawley rats [1]; 12 Hours
  Peak of activity (Counts per 0.2 h): 223 Counts per 0.2 h
  Time of Last Count Above 100 per 0.2 h: 6.4 h
  Total Activity Counts: 6622 Counts
  Total Activity Counts Above Baseline: 5686 Counts
Anesthetized Dog; 0.202 mg/kg, TIME 0
  DAP % Change from respective Time 0: 0%
  LVP % Change from respective Time 0: 0%
  MAP % Change from respective Time 0: 0%
  MAP - mean arterial pressure: 84 mmHg
  SAP % Change from respective Time 0: 0%
  SAP - systolic arterial pressure: 111 mmHg
Anesthetized Dog; 0.202 mg/kg, TIME 5
  DAP % Change from respective Time 0: 117%
  LVP % Change from respective Time 0: 107%
  MAP % Change from respective Time 0: 109%
  MAP - mean arterial pressure: 176 mmHg
  SAP % Change from respective Time 0: 97%
  SAP - systolic arterial pressure: 218 mmHg
Anesthetized Dog; 0.202 mg/kg, TIME 15
  DAP % Change from respective Time 0: 45%
  LVP % Change from respective Time 0: 52%
  MAP % Change from respective Time 0: 49%
  MAP - mean arterial pressure: 125 mmHg
  SAP % Change from respective Time 0: 52%
  SAP - systolic arterial pressure: 168 mmHg
Anesthetized Dog; 0.202 mg/kg, TIME 25
  DAP % Change from respective Time 0: 30%
  LVP % Change from respective Time 0: 37%
  MAP % Change from respective Time 0: 31%
  MAP - mean arterial pressure: 110 mmHg
  SAP % Change from respective Time 0: 34%
  SAP - systolic arterial pressure: 148 mmHg
Anesthetized Dog; 0.202 mg/kg, TIME 30
  DAP % Change from respective Time 0: 20%
  LVP % Change from respective Time 0: 30%
  MAP % Change from respective Time 0: 23%
  MAP - mean arterial pressure: 103 mmHg
  SAP % Change from respective Time 0: 26%
  SAP - systolic arterial pressure: 140 mmHg
Anesthetized Dog; 0.404 mg/kg, TIME 0
  DAP % Change from respective Time 0: 0%
  LVP % Change from respective Time 0: 0%
  MAP % Change from respective Time 0: 0%
  MAP - mean arterial pressure: 101 mmHg
  SAP % Change from respective Time 0: 0%
  SAP - systolic arterial pressure: 139 mmHg
Anesthetized Dog; 0.404 mg/kg, TIME 5
  DAP % Change from respective Time 0: 88%
  LVP % Change from respective Time 0: 79%
  MAP % Change from respective Time 0: 85%
  MAP - mean arterial pressure: 187 mmHg
  SAP % Change from respective Time 0: 73%
  SAP - systolic arterial pressure: 240 mmHg
Anesthetized Dog; 0.404 mg/kg, TIME 15
  DAP % Change from respective Time 0: 44%
  LVP % Change from respective Time 0: 43%
  MAP % Change from respective Time 0: 43%
  MAP - mean arterial pressure: 145 mmHg
  SAP % Change from respective Time 0: 39%
  SAP - systolic arterial pressure: 193 mmHg
Anesthetized Dog; 0.404 mg/kg, TIME 25
  DAP % Change from respective Time 0: 17%
  LVP % Change from respective Time 0: 26%
  MAP % Change from respective Time 0: 20%
  MAP - mean arterial pressure: 122 mmHg
  SAP % Change from respective Time 0: 19%
  SAP - systolic arterial pressure: 166 mmHg
Anesthetized Dog; 0.404 mg/kg, TIME 30
  DAP % Change from respective Time 0: 11%
  LVP % Change from respective Time 0: 22%
  MAP % Change from respective Time 0: 16%
  MAP - mean arterial pressure: 117 mmHg
  SAP % Change from respective Time 0: 16%
  SAP - systolic arterial pressure: 160 mmHg
Anesthetized Dog; 2.02 mg/kg, TIME 0
  DAP % Change from respective Time 0: 0%
  LVP % Change from respective Time 0: 0%
  MAP % Change from respective Time 0: 0%
  MAP - mean arterial pressure: 115 mmHg
  SAP % Change from respective Time 0: 0%
  SAP - systolic arterial pressure: 158 mmHg
Anesthetized Dog; 2.02 mg/kg, TIME 5
  DAP % Change from respective Time 0: 48%
  LVP % Change from respective Time 0: 40%
  MAP % Change from respective Time 0: 47%
  MAP - mean arterial pressure: 169 mmHg
  SAP % Change from respective Time 0: 44%
  SAP - systolic arterial pressure: 228 mmHg
Anesthetized Dog; 2.02 mg/kg, TIME 15
  DAP % Change from respective Time 0: 23%
  LVP % Change from respective Time 0: 24%
  MAP % Change from respective Time 0: 23%
  MAP - mean arterial pressure: 142 mmHg
  SAP % Change from respective Time 0: 24%
  SAP - systolic arterial pressure: 196 mmHg
Anesthetized Dog; 2.02 mg/kg, TIME 25
  DAP % Change from respective Time 0: 17%
  LVP % Change from respective Time 0: 19%
  MAP % Change from respective Time 0: 17%
  MAP - mean arterial pressure: 135 mmHg
  SAP % Change from respective Time 0: 20%
  SAP - systolic arterial pressure: 189 mmHg
Anesthetized Dog; 2.02 mg/kg, TIME 30
  DAP % Change from respective Time 0: 13%
  LVP % Change from respective Time 0: 16%
  MAP % Change from respective Time 0: 12%
  MAP - mean arterial pressure: 129 mmHg
  SAP % Change from respective Time 0: 16%
  SAP - systolic arterial pressure: 183 mmHg
Anesthetized Dog; dog, IV bolus, 0.202 mg/kg d-amphetamine, equimolar to 0.5 mg/kg L-lysine-d-amphetamine
  Effect on mean blood pressure after the first (lowest) dose: acute doubling of the mean BP
Male Sprague-Dawley rats [2]; [5]
  Total Activity Counts 3 h: 1659 Counts
  Total Activity Counts Above Baseline: 1355 Counts
Male Sprague-Dawley rats [2]; [6]
  Percent d-amphetamine: 100%
Male Sprague-Dawley rats [3]; [7]
  Total Activity Counts (1 h): 858 Counts
  Total Activity Counts Above Baseline: 686 Counts
Male Sprague-Dawley rats [3]; [6]
  Percent d-amphetamine: 100%
[4]
  Animals that died or were sacrificed due to acute symptoms of toxicity: 8 of 12
